The source of these data is ChEMBL document CHEMBL1121895, “Pyrazolodiazepines. 3. 4-Aryl-1,6,7,8-tetrahydro-1,3-dialkylpyrazolo[3,4-e][1,4]diazepines as antidepressant agents” (1981).

Molecules are shown by their SMILES.

Assay type in all cases: functional
The species named for test [1] is Rattus norvegicus. The experiment in a line: Time-related potentiation of methamphetamine-induced anorexia in rats at the lowest active dose. The settings on record: read-out: MED.
The species named for test [2] is Rattus norvegicus. The experiment in a line: Potentiation of Methamphetamine effect for intracranial self stimulation(SS) in rats.
Test [3] concerns Rattus norvegicus. As to the kind of experiment: Amount of milk ingested after the 120 min methamphetamine-challenges, produced by the compound at 10 mg/kg in fasted rats.
The subject of test [4] is Rattus norvegicus. The experiment in a line: Amount of milk ingested after the 120 min methamphetamine-challenges, produced by the compound at 2.5 mg/kg in fasted rats.
Test [5] relates to Rattus norvegicus. As to the kind of experiment: Amount of milk ingested after the 15 min methamphetamine-challenges, produced by the compound at 10 mg/kg in fasted rats.
Test [6] concerns Rattus norvegicus. The experiment in a line: Amount of milk ingested after the 15 min methamphetamine-challenges, produced by the compound at 0.625 mg/kg in fasted rats.
In test [7] the test system is Rattus norvegicus. As to the kind of experiment: Amount of milk ingested after the 120 min methamphetamine-challenges, produced by the compound at 5 mg/kg in fasted rats.
Test [8] deals with Rattus norvegicus. As to the kind of experiment: Amount of milk ingested after the 15 min methamphetamine-challenges, produced by the compound at 1.25 mg/kg in fasted rats.
The subject of test [9] is Rattus norvegicus. The experiment in a line: Amount of milk ingested after the 15 min methamphetamine-challenges, produced by the compound at 2.5 mg/kg in fasted rats.
Test [10] concerns Rattus norvegicus. The experiment in a line: Amount of milk ingested after the 120 min methamphetamine-challenges, produced by the compound at 1.25 mg/kg in fasted rats.
Test [11] deals with Rattus norvegicus. As to the kind of experiment: Amount of milk ingested after the 120 min methamphetamine-challenges, produced by the compound at 0.625 mg/kg in fasted rats.
Test [12] deals with Rattus norvegicus. As to the kind of experiment: Amount of milk ingested after the 15 min methamphetamine-challenges, produced by the compound at 5 mg/kg in fasted rats.
The test system of test [13] is Rattus norvegicus. The experiment in a line: Amount of milk ingested after the 15 min methamphetamine-challenges, produced by the compound at 0.312 mg/kg in fasted rats.
Test [14] has as its system Rattus norvegicus. The experiment in a line: Amount of milk ingested after the 120 min methamphetamine-challenges, produced by the compound at 0.312 mg/kg in fasted rats.

For `Cc1nn(C)c2c1C(c1ccccc1Cl)=NCCN2`, the minimal effective dose in the test listed under Rattus norvegicus [1] is 2.5 mg/kg.

In the case of `Cc1nn(C)c2c1C(c1cccc(Cl)c1)=NC(C)(C)CN2`, in the test listed under Rattus norvegicus [1], the minimal effective dose is 2.5 mg/kg. Besides, in the test listed under Rattus norvegicus [2], the Dose stood at 10 mg/kg.

As to `Cc1nn(C)c2c1C(c1ccccc1Cl)=NCCN2CCCN(C)C`, the minimal effective dose in the test listed under Rattus norvegicus [1] is > 10 mg/kg.

For the compound `Cc1nn(C)c2c1C(c1ccc(Cl)c(Cl)c1)=NCCN2`, the minimal effective dose in the test filed under Rattus norvegicus [1] was determined as 2.5 mg/kg.

For `CCn1nc(C)c2c1NCCN=C2c1cccc(C(F)(F)F)c1`, in the test listed under Rattus norvegicus [1], the minimal effective dose came to 0.63 mg/kg.

On to `Cc1nn(C)c2c1C(c1cccc(Cl)c1C)=NCCN2`, for which the minimal effective dose in the test listed under Rattus norvegicus [1] stood at 1.25 mg/kg. The Dose in the test filed under Rattus norvegicus [2] turned out to be 5 mg/kg.

As for `Cc1nn(C)c2c1C(c1cccc(Br)c1)=NCCN2`, the minimal effective dose in the test filed under Rattus norvegicus [1] worked out at 0.63 mg/kg. For the same compound, the Dose in the test listed under Rattus norvegicus [2] worked out at 5 mg/kg.

With `CCc1nn(C)c2c1C(c1cccc(Br)c1)=NCCN2`, in the test filed under Rattus norvegicus [1], the minimal effective dose was 1.25 mg/kg. In addition, the Dose in the test filed under Rattus norvegicus [2] is 5 mg/kg.

Regarding `Cc1cccc(C2=NC(C)(C)CNc3c2c(C)nn3C)c1`, the minimal effective dose in the test filed under Rattus norvegicus [1] is > 10 mg/kg.

Regarding `CCc1nn(C)c2c1C(c1cccc(C)c1)=NCCN2`, the minimal effective dose in the test filed under Rattus norvegicus [1] came out at 5 mg/kg.

Consider `Cc1nn(C)c2c1C(c1ccccc1)=NCCN2C`, for which the minimal effective dose in the test filed under Rattus norvegicus [1] was found to be 2.5 mg/kg. The Dose in the test listed under Rattus norvegicus [2] was >10 mg/kg.

For the compound `Cc1nn(C)c2c1C(c1ccccc1)=NCC1CCCCN21` (stereo unspecified), the minimal effective dose in the test filed under Rattus norvegicus [1] was 5 mg/kg.

Turning to `Cc1nn(C)c2c1C(c1cccc(O)c1)=NCCN2`, the minimal effective dose in the test filed under Rattus norvegicus [1] worked out at 2.5 mg/kg. The Dose in the test filed under Rattus norvegicus [2] is 10 mg/kg.

Turning to `Cc1ccc(C2=NCCNc3c2c(C)nn3C)cc1`, the minimal effective dose in the test filed under Rattus norvegicus [1] turned out to be 2.5 mg/kg.

On to `COc1ccc(C2=NCCNc3c2c(C)nn3C)cc1`, for which the minimal effective dose in the test filed under Rattus norvegicus [1] was > 10 mg/kg.

With `Cc1nn(C)c2c1C(c1cccc(Cl)c1)=NCC1CCCCN21` (stereo unspecified), in the test listed under Rattus norvegicus [1], the minimal effective dose turned out to be 2.5 mg/kg.

For the compound `CC(=O)N1CCN=C(c2cccc(Cl)c2)c2c(C)nn(C)c21`, the minimal effective dose in the test filed under Rattus norvegicus [1] was > 10 mg/kg.

In the case of `CCN1CCN=C(c2cccc(Cl)c2)c2c(C)nn(C)c21`, in the test listed under Rattus norvegicus [1], the minimal effective dose was determined as 0.63 mg/kg.

For the compound `Cc1n[nH]c2c1C(c1cccc(Cl)c1)=NCCN2`, the minimal effective dose in the test listed under Rattus norvegicus [1] was 2.5 mg/kg.

On to `Cc1cc(C)cc(C2=NCCNc3c2c(C)nn3C)c1`, for which the minimal effective dose in the test listed under Rattus norvegicus [1] was > 10 mg/kg.

Consider `Cc1nn(C)c2c1C(c1cccc(N)c1)=NCCN2`, for which, in the test listed under Rattus norvegicus [1], the minimal effective dose is 2.5 mg/kg.

With `Cc1nn(C)c2c1C(c1cccc([N+](=O)[O-])c1)=NCCN2`, in the test filed under Rattus norvegicus [1], the minimal effective dose is 5 mg/kg.

Turning to `Cc1nn(C)c2c1C(c1ccccc1)=NC(C)C(C)N2` (stereo unspecified), the minimal effective dose in the test filed under Rattus norvegicus [1] is 10 mg/kg.

As to `Cc1nn(C)c2c1C(c1ccc(Cl)cc1)=NCCN2`, the minimal effective dose in the test listed under Rattus norvegicus [1] turned out to be 2.5 mg/kg.

On to `Cc1nn(C)c2c1C(c1cccc(N=[N+]=[N-])c1)=NCCN2`, for which the minimal effective dose in the test listed under Rattus norvegicus [1] was 2.5 mg/kg.

For the compound `CCc1nn(C)c2c1C(c1cccc(F)c1)=NCCN2`, in the test listed under Rattus norvegicus [1], the minimal effective dose came to 2.5 mg/kg.

Regarding `Cc1nn(C)c2c1C(c1ccccc1Cl)=NCC(C#N)N2` (stereo unspecified), in the test filed under Rattus norvegicus [1], the minimal effective dose is > 10 mg/kg.

As to `Cc1nn(C)c2c1C(c1cccc(Cl)c1)=NC(C)CN2` (stereo unspecified), in the test filed under Rattus norvegicus [1], the minimal effective dose came out at 0.63 mg/kg.

Turning to `Cc1nn(C)c2c1C(c1cccc(Cl)c1)=[N+]([O-])CCN2`, the minimal effective dose in the test filed under Rattus norvegicus [1] was > 10 mg/kg.

`Cc1nn(C)c2c1C(c1cccc(Cl)c1)=NCCN2CCCN(C)C`: the minimal effective dose in the test filed under Rattus norvegicus [1] was > 10 mg/kg.

With `Cc1nn(C)c2c1C(c1cccc(Cl)c1)=NCCN2C`, the minimal effective dose in the test listed under Rattus norvegicus [1] was found to be 0.63 mg/kg.

`CCc1nn(C)c2c1C(c1cccc(F)c1)=NCCN2CCCN(C)C`: the minimal effective dose in the test filed under Rattus norvegicus [1] is > 10 mg/kg.

Consider `Cc1nn(C)c2c1C(c1cccc(Cl)c1)=NCCN2CCN1CCCC1`, for which the minimal effective dose in the test listed under Rattus norvegicus [1] is > 10 mg/kg.

Consider `Cc1nn(C)c2c1C(c1cccc(F)c1)=NCCN2`, for which, in the test filed under Rattus norvegicus [1], the minimal effective dose came out at 2.5 mg/kg. For the same compound, in the test filed under Rattus norvegicus [2], the Dose worked out at 2.5 mg/kg.

As for `Cc1cccc(C2=NCCNc3c2c(C)nn3C)c1`, the minimal effective dose in the test listed under Rattus norvegicus [1] worked out at 2.5 mg/kg. Moreover, the Dose in the test filed under Rattus norvegicus [2] stood at 10 mg/kg.

Regarding `Cc1nn(C)c2c1C(c1cccc(Cl)c1)=NCCN2N=O`, the minimal effective dose in the test listed under Rattus norvegicus [1] came to 1.25 mg/kg.

Regarding `Cc1nn(C)c2c1C(c1cccc(C(F)(F)F)c1)=NCCN2`, in the test filed under Rattus norvegicus [1], the minimal effective dose was determined as 0.63 mg/kg. The Dose in the test filed under Rattus norvegicus [2] is 1.25 mg/kg.

Take `Cc1ccc(C2=NCCN(CCCN(C)C)c3c2c(C)nn3C)cc1`: in the test filed under Rattus norvegicus [1], the minimal effective dose was > 10 mg/kg.

Consider `Cc1nn(C)c2c1C(c1cccc(F)c1)=NCCN2CCCN(C)C`, for which the minimal effective dose in the test filed under Rattus norvegicus [1] was > 10 mg/kg.

On to `Cc1nn(C)c2c1C(c1ccc(O)cc1)=NCCN2C`, for which the minimal effective dose in the test listed under Rattus norvegicus [1] amounted to 2.5 mg/kg. Also, the Dose in the test listed under Rattus norvegicus [2] turned out to be 5 mg/kg.

With `Cc1nn(C)c2c1C(c1ccccc1)=NCCN2CCCN(C)C`, the minimal effective dose in the test listed under Rattus norvegicus [1] is > 10 mg/kg.

`Cc1cccc(C2=NCCN(CCCN(C)C)c3c2c(C)nn3C)c1`: the minimal effective dose in the test filed under Rattus norvegicus [1] is > 10 mg/kg.

For `Cc1ccc(C)c(C2=NCCNc3c2c(C)nn3C)c1`, the minimal effective dose in the test filed under Rattus norvegicus [1] was > 10 mg/kg.

As for `Cc1nn(C)c2c1C(c1ccccc1Cl)=NCCN2C`, in the test listed under Rattus norvegicus [1], the minimal effective dose was determined as 2.5 mg/kg.

For the compound `COc1cc(OC)cc(C2=NCCNc3c2c(C)nn3C)c1`, the minimal effective dose in the test listed under Rattus norvegicus [1] came out at 2.5 mg/kg. Besides, the Dose in the test filed under Rattus norvegicus [2] was 10 mg/kg.

In the case of `Cc1nn(C)c2c1C(c1cccc(C#N)c1)=NCCN2`, the minimal effective dose in the test filed under Rattus norvegicus [1] is 1.25 mg/kg.

Turning to `CCn1nc(C)c2c1N(C)CCN=C2c1ccccc1Cl`, in the test listed under Rattus norvegicus [1], the minimal effective dose was 5 mg/kg. The Dose in the test filed under Rattus norvegicus [2] was >10 mg/kg.

`Cc1nn(C)c2c1C(c1ccccc1)=NCCN2.Cl`: the minimal effective dose in the test filed under Rattus norvegicus [1] stood at 2.5 mg/kg.

With `CN(C)CCCN1c2ccccc2CCc2ccccc21` [IMIPRAMINE], the Amount amounted to 0 mL in the test on Rattus norvegicus [3]; 2.2 mL in the test with Rattus norvegicus [4]; 0 mL in the test with Rattus norvegicus [5]; 4 mL with Rattus norvegicus [6]; 0.1 mL in the test on Rattus norvegicus [7]; 2.7 mL in the test with Rattus norvegicus [8]. The Amount was 3.3 mL in the test with Rattus norvegicus [9], 4.8 mL with Rattus norvegicus [10], 3.3 mL in the test on Rattus norvegicus [11] and 0.5 mL in the test on Rattus norvegicus [12]. In addition, the minimal effective dose in the test filed under Rattus norvegicus [1] worked out at 2.5 mg/kg. Also, in the test filed under Rattus norvegicus [2], the Dose turned out to be 1.25 mg/kg.

As to `Cc1nn(C)c2c1C(c1cccc(Cl)c1)=NCCN2` [ZOMETAPINE], the Amount was 0.1 mL with Rattus norvegicus [3]; 0.2 mL with Rattus norvegicus [4]; 0 mL in the test with Rattus norvegicus [5]; 1.1 mL in the test with Rattus norvegicus [6]; 0.1 mL with Rattus norvegicus [7]; 1.7 mL in the test with Rattus norvegicus [8]. Besides, the Amount was determined as 4.2 mL with Rattus norvegicus [13]; 3.6 mL in the test on Rattus norvegicus [14]; 0 mL in the test with Rattus norvegicus [9]; 0.2 mL in the test on Rattus norvegicus [10]; 0.5 mL in the test on Rattus norvegicus [11]; 0.1 mL in the test with Rattus norvegicus [12]. In addition, the minimal effective dose in the test filed under Rattus norvegicus [1] turned out to be 0.63 mg/kg. The Dose in the test listed under Rattus norvegicus [2] was determined as 1.25 mg/kg.
